Data as given in patent US8846656B2, “Tetrahydropyrido-pyridine and tetrahydropyrido-pyrimidine compounds and use thereof as C5a receptor modulators” (Novartis AG, priority 2011, dated 2014).

What follows are molecules tested against human C5aR (Homo sapiens (Human), UniProt P21730) (assay: FLIPR assay: inhibition of C5a-mediated calcium mobilization). Details: stable cell line over expressing human C5aR & Gα15, human C5a at EC50 (0.1-0.25 nM).
Type: cell-based
Protocol: Compounds were tested for their ability to inhibit C5a-mediated calcium mobilization using a stable cell line over expressing the human C5aR & the Gα15 protein on the FLIPR (Fluorescent Imaging Plate Reader) Tetra system. Cells were maintained in culture media containing DMEM (Dulbecco's Modified Eagle Medium) with 4.5 g/L glucose, 10% fetal bovine serum, 100 U/mL, 1× non-essential amino acid, and 250 μg/mL G418 (Geneticin). Prior to testing of compounds, cells were plated at 10,000 cells/well in clear bottom 384-well black plate, and incubated overnight at 37° C. with 5% CO2. On the day of experiment, culture media was removed, and replaced with assay buffer HBSS (Hanks' Balanced Salt Solution) with 20 mM HEPES (4-(2-hydroxyethyl)-1-piperazineethanesulfonic acid) and 0.1% BSA (bovine serum albumin) BSA containing calcium 5 dye (Molecular Devices) and 2.5 mM probenecid. After 1 hour incubation at 37° C., 5% CO2 for 60 min, cells were pre-incubated with compounds for 30 minutes at room temperature, in 1% DMSO (dimethyl sulfoxide).

Sequence of human C5aR (P21730 whole entry): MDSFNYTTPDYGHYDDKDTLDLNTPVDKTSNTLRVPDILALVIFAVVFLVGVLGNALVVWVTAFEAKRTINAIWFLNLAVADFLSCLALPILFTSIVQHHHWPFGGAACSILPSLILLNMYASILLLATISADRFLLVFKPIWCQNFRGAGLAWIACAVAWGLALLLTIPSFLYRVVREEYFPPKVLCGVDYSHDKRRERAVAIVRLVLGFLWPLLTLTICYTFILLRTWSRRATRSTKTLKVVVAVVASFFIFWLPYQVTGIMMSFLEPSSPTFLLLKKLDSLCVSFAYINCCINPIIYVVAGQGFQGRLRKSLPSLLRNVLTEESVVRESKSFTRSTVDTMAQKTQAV

| SMILES | IC50 [nM] |
| --- | --- |
| Cc1c[nH]c2cccc(-c3nc4c(c(N5CCN(CC(N)=O)[C@H](C)C5)n3)CN(c3ccc(F)cc3F)CC4)c12 [Example 24-I, (R)-2-(4-(6-(2,4-difluorophenyl)-2-(3-methyl-1H-indol-4-yl)-5,6,7,8-tetrahydropyrido[4,3-d]pyrimidin-4-yl)-2-methylpiperazin-1-yl)acetamide] | 464 |
| COCCN(C)c1cc(-c2c(C)cccc2C)nc2c1CN(c1cc(C(C)C)ccc1C)CC2 [Example 51-D, 2-(2,6-dimethylphenyl)-6-(5-isopropyl-2-methylphenyl)-N-(2-methoxyethyl)-N-methyl-5,6,7,8-tetrahydro-1,6-naphthyridin-4-amine] | 197 |
| Cc1ccc(C(C)C)cc1N1CCc2nc(-c3cccc4[nH]cc(C)c34)nc(N3CC(N(C)C)C3)c2C1 [Example 17-BG, 1-(6-(5-isopropyl-2-methylphenyl)-2-(3-methyl-1H-indol-4-yl)-5,6,7,8-tetrahydropyrido[4,3-d]pyrimidin-4-yl)-N,N-dimethylazetidin-3-amine] | 15 |
| [2H]C1([2H])c2c(C)cc(-c3c(C)cnc4[nH]ccc34)nc2CCN1c1cc(C(C)C)ccc1C [Example 43-D, 6-(5-isopropyl-2-methylphenyl)-4-methyl-2-(5-methyl-1H-pyrrolo[2,3-b]pyridin-4-yl)-5,6,7,8-tetrahydro(5,5-^2H2)-1,6-naphthyridine] | 802 |
| CO[C@H]1CCN(c2nc(-c3cccc4[nH]cc(C)c34)nc3c2CN(c2cc(C4CC4)ccc2C)CC3)CC1(C)C [Example 19-N, (S)-6-(5-cyclopropyl-2-methylphenyl)-4-(4-methoxy-3,3-dimethylpiperidin-1-yl)-2-(3-methyl-1H-indol-4-yl)-5,6,7,8-tetrahydropyrido[4,3-d]pyrimidine] | 29 |
| CO[C@H]1CCN(c2nc(-c3cccc4cnn(C)c34)nc3c2CN(c2cc(C4(C)COC4)ccc2C)CC3)CC1(C)C [Example 19-L, (S)-4-(4-methoxy-3,3-dimethylpiperidin-1-yl)-2-(1-methyl-1H-indazol-7-yl)-6-(2-methyl-5-(3-methyloxetan-3-yl)phenyl)-5,6,7,8-tetrahydropyrido[4,3-d]pyrimidine] | 746 |
| CO[C@H]1C[C@H]2CC[C@@H](C1)N2c1nc(-c2c(C)cccc2C)nc2c1CN(c1cc(C3(C)COC3)ccc1C)CC2 [Example 21-X, 2-(2,6-dimethylphenyl)-4-((3-endo)-3-methoxy-8-azabicyclo[3.2.1]octan-8-yl)-6-(2-methyl-5-(3-methyloxetan-3-yl)phenyl)-5,6,7,8-tetrahydropyrido[4,3-d]pyrimidine] | 308 |
| CCn1nc(C)c(N2CCc3nc(-c4c(C)ccc5[nH]ncc45)cc(C)c3C2)c1C [Example 40-P, 6-(1-ethyl-3,5-dimethyl-1H-pyrazol-4-yl)-4-methyl-2-(5-methyl-1H-indazol-4-yl)-5,6,7,8-tetrahydro-1,6-naphthyridine] | 37 |
| Cc1ccc(C(C)C)cc1N1CCc2nc(-c3cccc4[nH]cc(C)c34)nc(N[C@@H](CO)C(C)C)c2C1 [Example 17-M, (R)-2-((6-(5-isopropyl-2-methylphenyl)-2-(3-methyl-1H-indol-4-yl)-5,6,7,8-tetrahydropyrido[4,3-d]pyrimidin-4-yl)amino)-3-methylbutan-1-ol] | 30 |
| CNc1nc(-c2cccc3[nH]cc(C)c23)nc2c1CN(c1cc(C(C)C)ccc1C)CC2 [Example 17-AJ, 6-(5-isopropyl-2-methylphenyl)-N-methyl-2-(3-methyl-1H-indol-4-yl)-5,6,7,8-tetrahydropyrido[4,3-d]pyrimidin-4-amine] | 94 |
| [2H]C1([2H])c2c(C)cc(-c3c(CC)cccc3CC)nc2CC(C)N1c1cc(C(C)C)ccc1C (single isomer, unassigned) [Example 42-L, 2-(2,6-diethylphenyl)-6-(5-isopropyl-2-methylphenyl)-4,7-dimethyl-5,6,7,8-tetrahydro(5,5-^2H2)-1,6-naphthyridine] | 4 |
| CC(=O)N1CCN(c2nc(-c3ccccc3C(F)(F)F)nc3c2CN(c2cc(C(C)C)ccc2C)CC3)[C@H](C)C1 [Example 25-F, (R)-1-(4-(6-(5-isopropyl-2-methylphenyl)-2-(2-(trifluoromethyl)phenyl)-5,6,7,8-tetrahydropyrido[4,3-d]pyrimidin-4-yl)-3-methylpiperazin-1-yl)ethanone] | 23 |
| CCO[C@@H]1CCN(c2nc(-c3c(C)ccc4[nH]nc(C)c34)nc3c2CN(c2c(F)c(C4CC4)nn2C)CC3)CC1(C)C [Example 56-E, (R)-6-(3-cyclopropyl-4-fluoro-1-methyl-1H-pyrazol-5-yl)-2-(3,5-dimethyl-1H-indazol-4-yl)-4-(4-ethoxy-3,3-dimethylpiperidin-1-yl)-5,6,7,8-tetrahydropyrido[4,3-d]pyrimidine] | 2 |
| CC(=O)N1CCN(c2nc(-c3cccc4[nH]cc(C)c34)nc3c2CN(c2cc(C(C)C)ccc2C)CC3)CC12CC2 [Example 53, 1-(7-(6-(5-Isopropyl-2-methylphenyl)-2-(3-methyl-1H-indol-4-yl)-5,6,7,8-tetrahydropyrido[4,3-d]pyrimidin-4-yl)-4,7-diazaspiro[2.5]octan-4-yl)ethanone] | 18 |
| CCc1cccc(CC)c1-c1cc(C)c2c(n1)CCN(c1ccc(C)cc1C)C2 [Example 40-L, 2-(2,6-diethylphenyl)-6-(2,4-dimethylphenyl)-4-methyl-5,6,7,8-tetrahydro-1,6-naphthyridine] | 180 |
| Cc1ccc(C(C)C)cc1N1CCc2nc(-c3cccc4[nH]cc(C)c34)nc(N3CC4(COC4)C3)c2C1 [Example 17-BE, 6-(6-(5-isopropyl-2-methylphenyl)-2-(3-methyl-1H-indol-4-yl)-5,6,7,8-tetrahydropyrido[4,3-d]pyrimidin-4-yl)-2-oxa-6-azaspiro[3.3]heptanes] | 415 |
| CO[C@H]1CCN(c2nc(-c3ccccc3C(F)(F)F)nc3c2CN(c2cc(C4CC4)ccc2C)CC3)CC1(C)C [Example 19-K, (S)-6-(5-cyclopropyl-2-methylphenyl)-4-(4-methoxy-3,3-dimethylpiperidin-1-yl)-2-(2-(trifluoromethyl)phenyl)-5,6,7,8-tetrahydropyrido[4,3-d]pyrimidine] | 65 |
| COc1ccc(Cl)cc1-c1nc2c(c(N3CCCC(C)(C)C3)n1)CN(c1cc(C(C)C)ccc1C)CC2 [Example 19-Q, 2-(5-chloro-2-methoxyphenyl)-4-(3,3-dimethylpiperidin-1-yl)-6-(5-isopropyl-2-methylphenyl)-5,6,7,8-tetrahydropyrido[4,3-d]pyrimidine] | 112 |
| [2H]C1([2H])c2c(C)cc(-c3c(CC)cccc3CC)nc2CC(C)N1c1cc(C2CC2)nn1C (stereo not drawn) [Example 42-H, 6-(3-cyclopropyl-1-methyl-1H-pyrazol-5-yl)-2-(2,6-diethylphenyl)-4,7-dimethyl-5,6,7,8-tetrahydro(5,5-^2H2)-1,6-naphthyridine] | 58 |
| Cc1ccc(C(C)C)cc1N1CCc2nc(-c3c(C4CC4)cnc4[nH]ccc34)nc(N3CCCC(C)(C)C3)c2C1 [Example 20-D, 2-(5-Cyclopropyl-1H-pyrrolo[2,3-b]pyridin-4-yl)-4-(3,3-dimethylpiperidin-1-yl)-6-(5-isopropyl-2-methylphenyl)-5,6,7,8-tetrahydropyrido[4,3-d]pyrimidine] | 164 |
| Cc1cc(-c2c(C)ccc3[nH]ncc23)nc2c1CN(c1cc(C3CC3)nn1C)CC2 [Example 40-Q, 6-(3-cyclopropyl-1-methyl-1H-pyrazol-5-yl)-4-methyl-2-(5-methyl-1H-indazol-4-yl)-5,6,7,8-tetrahydro-1,6-naphthyridine] | 868 |
| Cc1ccc(C(C)C)cc1N1CCc2nc(-c3cccc4[nH]cc(C)c34)nc(N3CCC(O)C(C)(C)C3)c2C1 (stereo not drawn) [Example 17-AI, l-(6-(5-isopropyl-2-methylphenyl)-2-(3-methyl-1H-indol-4-yl)-5,6,7,8-tetrahydropyrido[4,3-d]pyrimidin-4-yl)-3,3-dimethylpiperidin-4-ol] | 19 |
| COCCN(C)c1cc(-c2c(C)cccc2C)nc2c1C(=O)N(c1cc(C(C)C)ccc1C)CC2 [Example 50-E, 2-(2,6-dimethylphenyl)-6-(5-isopropyl-2-methylphenyl)-4-((2-methoxyethyl)(methyl)amino)-7,8-dihydro-1,6-naphthyridin-5(6H)-one] | 790 |
| COCCCOc1nc(-c2c(C)cccc2C)nc2c1CN(c1cc(C(C)C)ccc1C)CC2 [Example 39-D, 2-(2,6-Dimethylphenyl)-6-(5-isopropyl-2-methylphenyl)-4-(3-methoxypropoxy)-5,6,7,8-tetrahydropyrido[4,3-d]pyrimidine] | 74 |
| COc1ccc(C)c(N2CCc3nc(-c4c(C)ccc5[nH]ncc45)cc(C)c3C2)c1 [Example 46-C] | 25 |
| Cc1ccc(C)c(-c2nc3c(c(N4CCN(CC(N)=O)C[C@H]4C)n2)CN(c2cc(C(C)C)ccc2C)CC3)c1 [Example 24-C, (R)-2-(4-(2-(2,5-Dimethylphenyl)-6-(5-isopropyl-2-methylphenyl)-5,6,7,8-tetrahydropyrido[4,3-d]pyrimidin-4-yl)-3-methylpiperazin-1-yl)acetamide] | 31 |
| [2H]C1([2H])c2c(C)cc(-c3c(CC)cccc3CC)nc2CCN1c1c(C)ccnc1C [Example 44-D, 2-(2,6-Diethylphenyl)-6-(2,4-dimethylpyridin-3-yl)-4-methyl-5,6,7,8-tetrahydro(5,5-^2H2)-1,6-naphthyridine] | 131 |
